From ChEMBL document CHEMBL1136730, “Antiestrogens and selective estrogen receptor modulators as multifunctional medicines. 2. Clinical considerations and new agents” (J Med Chem, 2003)
Active and inactive are the calls of the source. No cut-off for these calls is given here.

Assays:
Rattus norvegicus = test: Effect on stimulation of immature rat uterus in dose limit of 0.1 and 10 mg/kg; No effect but lowers circulating cholesterol; assay type: functional, organism-based; set-up: dose 10 mg/kg
Estrogen receptor = target: T1, Estrogen receptor (Homo sapiens, UniProt P03372); test: Binding affinity for Estrogen receptor alpha
T1 sequence (P03372 whole entry): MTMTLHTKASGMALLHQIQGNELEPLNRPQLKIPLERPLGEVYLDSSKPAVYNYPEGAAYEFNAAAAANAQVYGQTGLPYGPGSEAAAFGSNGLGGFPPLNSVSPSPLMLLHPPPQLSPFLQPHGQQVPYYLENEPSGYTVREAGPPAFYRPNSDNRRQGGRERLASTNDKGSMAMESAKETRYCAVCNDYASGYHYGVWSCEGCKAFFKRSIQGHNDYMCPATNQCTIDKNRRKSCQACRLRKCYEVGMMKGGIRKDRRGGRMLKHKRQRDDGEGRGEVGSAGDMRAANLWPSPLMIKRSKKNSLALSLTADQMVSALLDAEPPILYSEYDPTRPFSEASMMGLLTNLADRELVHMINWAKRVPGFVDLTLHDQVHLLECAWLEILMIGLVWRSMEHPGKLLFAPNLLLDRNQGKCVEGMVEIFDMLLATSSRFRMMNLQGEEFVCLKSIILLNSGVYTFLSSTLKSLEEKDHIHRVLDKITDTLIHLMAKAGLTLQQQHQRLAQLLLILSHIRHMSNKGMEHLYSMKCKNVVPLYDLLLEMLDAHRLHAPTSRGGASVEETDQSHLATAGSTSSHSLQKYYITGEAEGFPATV

Homo sapiens [1] = organism: Homo sapiens; test: Effect on spine fractures in postmenopausal women with osteoporosis; assay type: functional
Homo sapiens [2] = organism: Homo sapiens; test: Effect on bone density in the lumber spine was determined in postmenopausal women; assay type: functional
[3] = Effect on bone density of totalhip was determined in postmenopausal women; assay type: functional, Homo sapiens, Bone element

Row | Compound | Effect (Rattus norvegicus) | Ki (Estrogen receptor) | Decrease (Homo sapiens [1]) | bioavailability (in vivo) | Increase (Homo sapiens [2]) | Increase [3]
1 | Oc1ccc2c(c1)CN(c1ccc(OCCN3CCCCC3)cc1)c1c-2ccc2cc(O)ccc12 | inactive | 0.28 nM |  |  |  | 
2 | O=C(c1ccc(OCCN2CCCCC2)cc1)c1c(-c2ccc(O)cc2)sc2cc(O)ccc12 [RALOXIFENE] |  |  | 40% | 2% | 2.4% | 2.4%
